This note sets out measurements from ChEMBL document CHEMBL1129121, “Design, synthesis and binding affinities of novel non-peptide mimics of somatostatin/sandostatin” (Bioorg Med Chem Lett, 1996).

What is called IC50 is the concentration that gives 50% inhibition. A lower IC50 goes with greater potency.

In the test the target is Somatostatin receptor. The experiment in a line: Compound was tested for its potency to displace 3-[125I]- - Tyr11-SRIF-14 from somatostatin receptor on membranes of rat cerebral cortex. The format is tissue-based.
As for `NCCCCCCNC[C@H]1[C@@H](OCc2ccccc2)C(OCc2ccccc2)[C@H](CO)N1CCc1c[nH]c2ccccc12` (stereo partly specified), the IC50 came to 14 µM.
The molecule `NCCCCCCN1CC2[C@@H](OCc3ccccc3)[C@H](OCc3ccccc3)[C@H](C1)N2CCc1c[nH]c2ccccc12` showed a half-inhibitory concentration (IC50) of 12 µM.
Take `NCCCCCCNC[C@@H]1CN(CCc2c[nH]c3ccccc23)C[C@@H](O)[C@@H](OCc2ccccc2)[C@@H]1OCc1ccccc1`: the half-inhibitory concentration (IC50) is 10 µM.
Turning to `NCCCCCCN1CC2[C@@H](OCc3ccccc3)[C@H](OCc3ccccc3)C1CN2CCc1c[nH]c2ccccc12` (stereo partly specified), the half-maximal inhibitory concentration (IC50) worked out at 15 µM.
The same measure for `NCCCCCCN[C@H]1CN(CCc2c[nH]c3ccccc23)[C@@H](CO)C(OCc2ccccc2)[C@@H]1OCc1ccccc1` (stereo partly specified): 11 µM; for `NCCCCCCNC[C@H]1C(OCc2ccccc2)[C@H](OCc2ccccc2)[C@H](O)CN1CCc1c[nH]c2ccccc12` (stereo partly specified): 12 µM.
